Experiments:
[1] = test system: dermal fibroblasts obtained from explanted normal human skin; experiment: in-vitro anti-stress test under UV activity (LDH); type: cell-based; settings: control group = 100%, mean of 5 tests
Experimental: In this test, a culture of dermal fibroblasts obtained from explanted normal human skin is subjected to UV-induced stress. The amounts of the enzyme lacticodes-hydrogenase (LDH) produced as a consequence of the aforesaid stress are proportional to the cell damage caused. The culture medium contained, for example, 3 wt. % of glycogen (Dermo-saccharides GY®), and a series of control tests without the aforesaid additive was carried out for comparative purposes.

[2] = test system: cell homogenate of epithelial cells; experiment: oxygraphy: stimulation of oxygen consumption; type: cell-based; settings: control = 100%
Source text: Another synergy could be observed with regard to oxygraphy, i.e. the stimulation of the oxygen consumption of a cell homogenate of epithelial cells.

| Compound | protection of cells still alive after UV radiation ([1]; 3 wt. % glycogen in culture medium, 4 days after UV radiation) [%] | oxygen consumption ([2]; 3 wt. % glycogen added to control liquid (buffer)) [%] | protection of cells after UV radiation ([1]; 2 wt. % creatine in culture liquid) [%] | oxygen consumption ([2]; 2 wt. % creatine added to control liquid (buffer)) [%] |
| --- | --- | --- | --- | --- |
| glycogen | 128 | 135 | – | – |
| CN(CC(=O)O)C(=N)N [creatine, N-carbamidoyl-N-methylglycine] | – | – | 110 | 119 |

Source: patent US7217423B2, “Revitalising active complex for the skin” (Coty B.V., priority 2001, dated 2007)
